Test results from patent US20260199382A1, “PHOSPHORAMIDATE MONOSACCARIDES, PHARMACEUTICAL COMPOSITIONS, AND DIAGNOSTIC AND THERAPEUTIC APPLICATIONS” (Surio Therapeutics Co., LTD., priority 2022, published 2026).

Columns and labels:
Format in all cases: cell-based
Settings in all cases: 48 h; for AAM % / PBS %: 25 μM; for AAM %: mean fluorescence compared with Ac4ManNAz (AAM) positive control; for PBS %: mean fluorescence compared with PBS negative control; for Mean FL (×10^5): compound 25 μM, 37° C., DBCO-biotin then streptavidin-Cy5, mean fluorescence of live cells
[1] = system: MDA-MB-231; assay: Flow cytometry analysis of cell labeling (labeling efficiency of azido compounds) in MDA-MB-231
Procedure: (§1) Cells (2.0×10^5 cells/mL, 2 mL) were seeded in a 6-well culture plate and attached at 37° C. overnight. After washed thrice with PBS, the cells were incubated with an azido compound provided herein (25 μM) at 37° C. for 48 h. After washed thrice with PBS, the cells were incubated with DBCO-biotin (50 μM) in 500 μL serum free DMEM at 37° C. for 1 h. The cells were washed thrice with PBS and then incubated with streptavidin-Cy5 (5 μg/mL) in 500 μL serum free DMEM at 37° C. for 1 h. The cells were washed thrice with PBS, followed by addition of 300 μL 1× trypsin/EDTA for digestion. The lifted cells were transferred to a 1.5 mL EP tube, centrifuge at 1,000 rpm for 3 min, and washed with PBS once. Finally, 500 μL PBS containing 4% PFA was added to the cell pellet to fix the cells. The cell suspension was transferred to a flow tube and mixed with 10 μL of a PI working solution (50 μg/mL) at room temperature for 30 min before being subjected to flow cytometry.
(§2) Flow cytometry was used to characterize the labeling efficiency of a compound provided herein. After cells were labeled with an azido group, DBCO-biotin was added to specifically react with the azido group. Avidin-Cy5 was added bind to the cell surface biotin for a flow cytometry analysis. Dead cells were stained with PI and excluded from the analysis. Results were presented as the mean fluorescence of live cells, compared with PBS as a negative control and Ac4ManNAz (AAM) as a positive control, Ac4ManNAz (AAM, CAS: 361154-30-5).

[2] = system: OVCAR3; assay: Flow cytometry analysis of cell labeling (labeling efficiency of azido compounds) in OVCAR3
Procedure: as §1, §2

[3] = system: A549 cells; assay: Flow cytometry analysis of cell labeling (labeling efficiency of azido compounds) in A549 cells
Procedure: as §1, §2

In the case of CC(=O)OC1O[C@H](COP(=O)(N[C@@H](C)C(=O)OC(C)(C)C)Oc2ccccc2)[C@@H](OC(C)=O)[C@H](OC(C)=O)[C@@H]1NC(=O)CN=[N+]=[N-] (stereo partly drawn) [Compound A20, acetyl 2-(2-azidoacetylamino)-2-deoxy-3,4-di-O-acetyl-6-O—(((S)-1-tert-butoxy-carbonylethylamino)(phenoxy)phosphoryl)-D-mannopyranoside], the AAM % [1] is reported as 51%, the PBS % [1] is reported as 338% and the “Mean FL (×10^5)” value [1] is reported as 6.43 ×10^5.
For CC(=O)OC1O[C@H](COP(=O)(N[C@@H](C)C(=O)OCc2ccncc2)Oc2ccccc2)[C@@H](OC(C)=O)[C@H](OC(C)=O)[C@@H]1NC(=O)CN=[N+]=[N-] (stereo partly drawn) [Compound A25, Acetyl 2-(2-azidoacetylamino)-2-deoxy-3,4-di-O-acetyl-6-O—(((S)-1-pyridin-4-ylmethoxycarbonylethylamino)(phenoxy)phosphoryl)-D-mannopyranoside], the AAM % [2] was 26.9%, the PBS % [2] was 5538% and the “Mean FL (×10^5)” value [2] was 0.72 ×10^5.
With CC(=O)OC[C@H]1OC(OP(=O)(N[C@@H](C)C(=O)OC(C)c2ccccc2)Oc2ccccc2)[C@@H](NC(=O)CN=[N+]=[N-])[C@@H](OC(C)=O)[C@@H]1OC(C)=O (stereo partly drawn) [Compound B1, (((1S)-1-(1-Phenylethoxy-carbonyl)ethylamino)(phenoxy)phosphoryl) 2-(2-azidoacetylamino)-2-deoxy-3,4,6-tri-O-acetyl-D-mannopyranoside] the AAM % [3] was 42%, the PBS % [3] was 256% and the “Mean FL (×10^5)” value [3] was 7.67 ×10^5.
In the case of CC(=O)OC1OC(COP(=O)(N[C@H](C(=O)OC(C)c2ccccc2)C(C)C)Oc2ccccc2)C(OC(C)=O)C(OC(C)=O)C1NC(=O)CN=[N+]=[N-] (stereo partly drawn) [Compound A5, 2-(2-Azidoacetylamino)-2-deoxy-3,4-di-O-acetyl-6-O-(((1S)-1-(1-phenylethoxy-carbonyl)-2-methylpropylamino)(phenoxy)phosphoryl)-D-mannopyranoside], the AAM % [3] is reported as 20%, the PBS % [3] is reported as 118% and the “Mean FL (×10^5)” value [3] is reported as 3.55 ×10^5.
With CCCCCCOC(=O)[C@H](C)NP(=O)(OC[C@H]1OC(OC(C)=O)[C@@H](NC(=O)CN=[N+]=[N-])[C@@H](OC(C)=O)[C@@H]1OC(C)=O)Oc1ccccc1 (stereo partly drawn) [Compound A22, Acetyl 2-(2-azidoacetylamino)-2-deoxy-3,4-di-O-acetyl-6-O—(((S)-1-hexoxy-carbonylethylamino)(phenoxy)phosphoryl)-D-mannopyranoside] the AAM % [1] was 104%, the PBS % [1] was 684% and the “Mean FL (×10^5)” value [1] was 13.0 ×10^5.
For CC(=O)OC1OC(COP(=O)(N[C@@H](C)C(=O)OC(C)c2ccccc2)Oc2ccccc2)C(OC(C)=O)C(OC(C)=O)C1NC(=O)CN=[N+]=[N-] (stereo partly drawn) [Compound A3], the AAM % [3] was 48%, the PBS % [3] was 294% and the “Mean FL (×10^5)” value [3] was 8.82 ×10^5.
In the case of CCCCOC(=O)[C@H](C)NP(=O)(OC[C@H]1OC(OC(C)=O)[C@@H](NC(=O)CN=[N+]=[N-])[C@@H](OC(C)=O)[C@@H]1OC(C)=O)Oc1ccccc1 (stereo partly drawn) [Compound A18, acetyl 2-(2-azidoacetylamino)-2-deoxy-3,4-di-O-acetyl-6-O—(((S)-1-butoxy-carbonylethylamino)(phenoxy)phosphoryl)-D-mannopyranoside], the AAM % [1] is reported as 99%, the PBS % [1] is reported as 653% and the “Mean FL (×10^5)” value [1] is reported as 12.4 ×10^5.
For CC(=O)OC1O[C@H](COP(=O)(N[C@@H](C)C(=O)OCc2ccnc3ccccc23)Oc2ccccc2)[C@@H](OC(C)=O)[C@H](OC(C)=O)[C@@H]1NC(=O)CN=[N+]=[N-] (stereo partly drawn) [Compound A26, Acetyl 2-(2-azidoacetylamino)-2-deoxy-3,4-di-O-acetyl-6-O—(((S)-1-quinolin-4-ylmethoxycarbonylethylamino)(phenoxy)phosphoryl)-D-mannopyranoside], the AAM % [2] was 89.6%, the PBS % [2] was 18462% and the “Mean FL (×10^5)” value [2] was 2.4 ×10^5. The AAM % [1] was 144%, the PBS % [1] was 947% and the “Mean FL (×10^5)” value [1] was 18.0 ×10^5.
For CC(=O)OC1O[C@H](COP(=O)(N[C@@H](C)C(=O)OCc2cccnc2)Oc2ccccc2)[C@@H](OC(C)=O)[C@H](OC(C)=O)[C@@H]1NC(=O)CN=[N+]=[N-] (stereo partly drawn) [Compound A24, Acetyl 2-(2-azidoacetylamino)-2-deoxy-3,4-di-O-acetyl-6-O—(((S)-1-pyridin-3-ylmethoxycarbonylethylamino)(phenoxy)phosphoryl)-D-mannopyranoside], the AAM % [2] was 28.7%, the PBS % [2] was 5923% and the “Mean FL (×10^5)” value [2] was 0.77 ×10^5.
CC(=O)OC1OC(COP(=O)(NC(C)(C)C(=O)OC(C)c2ccccc2)Oc2ccccc2)C(OC(C)=O)C(OC(C)=O)C1NC(=O)CN=[N+]=[N-] [Compound A4, 2-(2-Azidoacetylamino)-2-deoxy-3,4-di-O-acetyl-6-O-((1-methyl-1-(1-phenyl-ethoxycarbonyl)ethylamino)(phenoxy)phosphoryl)-D-mannopyranoside] was tested, and the AAM % [3] was 51%, the PBS % [3] was 311% and the “Mean FL (×10^5)” value [3] was 9.32 ×10^5.
For CCC(CC)COC(=O)[C@H](C)NP(=O)(OC[C@H]1OC(OC(C)=O)[C@@H](NC(=O)CN=[N+]=[N-])[C@@H](OC(C)=O)[C@@H]1OC(C)=O)Oc1ccccc1 (stereo partly drawn) [Compound A23, Acetyl 2-(2-azidoacetylamino)-2-deoxy-3,4-di-O-acetyl-6-O—(((S)-1-(2-ethyl-butoxy)carbonylethylamino)(phenoxy)phosphoryl)-D-mannopyranoside], the AAM % [1] was 98%, the PBS % [1] was 642% and the “Mean FL (×10^5)” value [1] was 12.2 ×10^5.
For CC(=O)OC1O[C@H](COP(=O)(N[C@@H](C)C(=O)OC(C)C)Oc2ccccc2)[C@@H](OC(C)=O)[C@H](OC(C)=O)[C@@H]1NC(=O)CN=[N+]=[N-] (stereo partly drawn) [Compound A1, acetyl 2-(2-azidoacetylamino)-2-deoxy-3,4-di-O-acetyl-6-O—(((S)-1-isopropoxy-carbonylethylamino)(phenoxy)phosphoryl)-D-mannopyranoside], the AAM % [3] was 89%, the PBS % [3] was 540% and the “Mean FL (×10^5)” value [3] was 16.2 ×10^5. The AAM % [1] was 101%, the PBS % [1] was 663% and the “Mean FL (×10^5)” value [1] was 12.6 ×10^5.
CC(=O)OC1O[C@H](COP(=O)(N[C@@H](C)C(=O)OCc2cccc3ncccc23)Oc2ccccc2)[C@@H](OC(C)=O)[C@H](OC(C)=O)[C@@H]1NC(=O)CN=[N+]=[N-] (stereo partly drawn) [Compound A27, Acetyl 2-(2-azidoacetylamino)-2-deoxy-3,4-di-O-acetyl-6-O—(((S)-1-quinolin-5-ylmethoxycarbonylethylamino)(phenoxy)phosphoryl)-D-mannopyranoside] was tested, and the AAM % [2] was 93.3%, the PBS % [2] was 19231% and the “Mean FL (×10^5)” value [2] was 2.5 ×10^5. For the same compound, the AAM % [1] was 109%, the PBS % [1] was 716% and the “Mean FL (×10^5)” value [1] was 13.6 ×10^5.
